Reference: PubChem BioAssay (NCI)
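Following 48 hours of exposure in 96-well plates, responses at five concentrations were used to interpolate endpoints linearly. GI50 is the concentration that inhibits growth by half. TGI is the concentration that stops growth completely.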

Key:
Experiment in all cases: NCI tumour cell line growth inhibition, 48 h
[1] = tested on: DLD-1 colon
[2] = tested on: HCT-15 colon
[3] = tested on: LXFL 529 NSCLC
[4] = tested on: MOLT-4 leukemia
[5] = tested on: NCI-H226 lung
[6] = tested on: OVCAR-5 ovarian
[7] = tested on: TK-10 renal
[8] = tested on: UACC-62 melanoma
[9] = tested on: HS 578T breast
[10] = tested on: PC-3 prostate

Row | SMILES | TGI [1] [µM] | TGI [2] [µM] | TGI [3] [µM] | TGI [4] [µM] | TGI [5] [µM] | TGI [6] [µM] | GI50 [7] [µM] | TGI [7] [µM] | TGI [8] [µM] | TGI [9] [µM] | TGI [10] [µM]
1 | CN(C)c1ccc(/C=C/C(=O)[O-])cc1.CN(C)c1ccc(/C=C/C(=O)[O-])cc1.[Cu+2] | > 100 | > 100 | > 100 | > 100 | > 100 | 60.3 | > 100 | > 100 | > 62.9 |  | 
2 | O=[N+]([O-])c1ccc(C2CC(c3ccccc3Cl)=Nc3ccccc3S2)cc1 (stereo unspecified) | 7.24 | 10.9 | 11.8 | 5.37 | 27.9 | 62.7 |  | > 79.1 | 16.1 |  | 
3 | CC(=O)Nc1ccc(/C=c2\sc3nnc(CCC(=O)Nc4ccccc4Cl)n3c2=O)cc1 | > 100 | > 100 | > 100 | 44.7 | 52.7 | > 100 |  | > 100 | 56.2 |  | 
4 | CC12OOC(c3ccccc31)c1c2ccc2ccccc12 (stereo unspecified) | 3.06 | 5.09 | 4.81 | 3.42 | 39.3 | 33.6 |  | 22.3 | 21.2 | 78.7 | 18.8
5 | Cc1ccc(S(=O)(=O)c2ccc(NC(=O)SCCC(=O)O)cc2)cc1 | > 100 | > 100 | > 100 | > 100 | > 100 | > 100 |  | > 100 | > 100 |  | 
6 | CC(=O)Nc1ccccc1-c1nc2ccccc2nc1C | > 100 | > 100 | > 100 | > 100 | > 100 | > 100 |  | > 100 | > 100 |  | 
7 | CC1=C(O)c2cn(C)cc2C(=O)C1=O | > 100 | > 100 | > 100 | > 100 | > 100 | > 100 |  | > 100 | > 100 |  | 
8 | COC(=O)C(=O)C(C(=O)C(=O)Nc1cccc(C(C)=O)c1)c1nc2ccc([N+](=O)[O-])cc2[nH]c1=O (stereo unspecified) | > 100 | > 100 | > 100 | > 100 | > 100 | > 100 |  | > 100 | > 100 |  | 
9 | COC(=O)C1=Cc2cc(OC)c(OC)c(OC)c2[C@H](c2cc(OC)c(OC)c(OC)c2)C1C(=O)OC (stereo partly specified) | > 100 | > 100 | > 100 | > 100 | > 100 | > 100 |  | > 100 | > 100 |  | 
10 | Nc1nc2c(ncn2C2CCC(CO)O2)c(=O)n1C(=O)c1ccccc1 (stereo unspecified) | > 100 | > 100 | > 100 | > 100 | > 100 | > 100 |  | > 100 | > 100 | > 100 | > 100
11 | O=C1/C(=N\O)c2ccccc2S1(=O)=O | > 100 | > 100 | > 100 | > 100 | > 100 | > 100 |  | > 100 | > 100 |  | 
12 | CCN(CC)CC(C)(C)C(=O)/C=C/c1cccc(/C=C/C(=O)C(C)(C)CN(CC)CC)c1 | 0.833 | 2.37 | 1.13 | 0.901 | 3.38 | 2.98 |  | 2.35 | 3.16 |  | 
